Laboratory results: patent US20230013402A1, “REGENERATING FUNCTIONS AND PHENOTYPES OF CONNECTIVE TISSUE THROUGH NPAS2 SUPPRESSION” (The Regents of the University of California, priority 2019, published 2023)
“Also recorded” adds a separate entry of the source.

Tests used:
[1] = tested on: Npas2-LacZ reporter gene (Npas2 expression); assay: High throughput screening of FDA Approved Drug Library for Npas2-LacZ reporter expression; format: cell-based, mouse; conditions: Table 1
Source text: Mouse MSC carrying Npas2-LacZ reporter gene, as described by Hassan N, et al., PLoS One. 2017; 12(8):e0183359, which is incorporated by reference herein in its entirety, was immortalized using SV40 in order to accommodate a large-scale HTS. […] This cell system was used to screen FDA Approved Drug Library (1120 compounds). The same library was also screened for cell viability by Calcein AM Hoechst 33342 staining Cell migration assays using the Oris™ Pro Cell Migration Assay plate, as described by Joy M E et al., PloS one. 2014; 9(2):e88350, which is incorporated by reference herein in its entirety, was used for a high-throughput migration assay using human skin fibroblasts
The combined Z score was used to identify hit compounds (Table 1).

[2] = tested on: ligature-induced periodontitis; assay: Modified mouse ligature-induced periodontitis model (ligature removed at Day 14, evaluation at D28); format: in vivo; conditions: topical to palatal gingiva once a week, listed as Dwn1
Source text: FIGS. 12A-12H show the effect of Dwn1 in the modified ligature-induced periodontitis in mice.
The selected highest hit compound Dwn1 (Reserpine) of Example 2 was applied to the well established ligature-induced periodontitis model with modification. After periodontitis was established at Day 14, the ligature was revoved from mouse molar mimicking non-invasive periodontits treatment: scaling and root planing (SRP) (FIGS. 12A-12D). Dwn1 was formulated in ABR LLC's propritery trans-epithelial deformable nano-scale vesicle (DNV) (57) and topically adminstered to the palatal gingival tissue once a week (FIG. 12E). […] The in vivo regenerative efficacy of Dwn1 (Reserpine) was strongly indicated.
From FDA Approved Drug Library (1120 compounds) and LOPAC Library (1280 compounds), a list of chemical compounds that modulated Npas2-LacZ expression was identified. […] Dwn1 was formulated for topical application to palatal gingiva. After 14 days of periodontitis induction, the ligature was removed and Dwn1 was topically applied to the palatal gingiva once a week (FIG. 16A).

Npas2-LacZ expression = assay: Titration assay: effective concentration by LacZ expression in MSC Npas2-LacZ; format: cell-based, mouse; conditions: serial dilution 100 μM to 0.2 nM
Method: Dwn1 was serially diluted from 100 μM to 0.2 nM and applied to MSC Npas2-LacZ. Effective concentration (EC) was determined by LacZ expression and inhibitory concentration (IC) was determined by cell viability using Calcein AM/Hoechst 33342 staining DwnC and Dwn1 are both Reserpine.
Dwn1 was identical to the previously identified DwnC compound from the LOPAC library. Dwn1 compound (Reserpine) was selected for serial dilution analysis. […] Dwn1 was used for preliminary in vitro and in vivo studies described below. Additional compounds suppressing Npas2 were identified (Table 2).
Dwn1 was serially diluted from 100 μM to 0.2 nM and applied to MSC Npas2-LacZ. EC was determined by LacZ expression and IC was determined by cell viability using Calcein AM/Hoechst 33342 staining.

fibroblasts = assay: In vitro wound healing: scratch fibroblast migration and collagen gel contraction; format: cell-based, mouse; conditions: listed as Dwn1
Method: The in vitro wound healing ability of Dwn1 was tested using a previously described method.
Fibroblasts were seeded into a 6-well plate and were synchronized as above. After 2 hr, scratch lines were created with a 20 μL plastic pipette and were washed with medium (n=5 per group). These scratched areas were captured by time-lapse photomicrography every hour from 0 to 24 hr. The number of migrated cells into the scratched area was counted at 12 and 24 hr and compared by one-way ANOVA with post hoc Holm test.
The floating collagen gel contraction assay was performed following the previously established protocol with some modifications (Ngo et al., 2006). A 500 μL aliquot of collagen gel mixture (Collagen Type I, Corning, Manassas, Va.) containing fibroblasts (50,000 cells) was applied to a 24-well plate (n=5 in each group) and placed at room temperature for 20 min. The solidified gels were transferred to a 100 mm diameter dish and cultured (37_C, 5% CO2 in a humidified incubator). The gel images were scanned by a scanner at 0, 6, 12, 24, 48, and 72 hr. The collagen gel area at each time point was measured (NIH ImageJ ver.1.51) and compared by two-way ANOVA, followed by the Tukey test at each time point.
As described herein, a small molecule inhibitor of Neuronal PAS domain 2 (Npas2), Dwn1, improves wound healing and minimizes scarring.

[3] = tested on: bone marrow stromal cells (BMSC); assay: In vitro mineralization / osteogenic differentiation of BMSC (MSC) in osteogenic medium; format: cell-based, mouse
Source text: FIGS. 7A-7B show the effect of Reserpine on bone marrow stromal cells osteogenic differentiation. […] Bars: Tukey analysis with p<0.05. […] The expression values were normalized with day 0 RNA.
FIGS. 11A-11D(b) show results of in vitro biological assays of Npas2 suppressing compound Dwn1 (Reserpine).
Reserpine was selected and its effect on bone marrow stromal cells (BMSC) was characterized for osteogenic differentiation.
To evaluate the mechanism of action involving Npas2, Reserpine was applied to WT, Npas2+/− and Npas2−/− mouse BMSC and evaluated for in vitro osteogenic differentiation.
The small molecule compound that scored the best combined z score in Example 2, Dwn1 (Reserpine) was selected for in vitro biological assays. […] BMP-2 has been used as a gold standard for accelerated osteogenic differentiation of MSC (48, 49). […] The expression of core clock gene Bmal1 was not affected by Dwn1 (FIG. 11C). Dwn1 increased in vitro mineralization of Npas2+/− MSC, but not of Npas2−/− MSC (FIG. 11D), implying that the effect of Dwn1 (Reserpine) was facilitated primarily by Npas2 suppression.

## COC(=O)[C@H]1[C@H]2C[C@@H]3c4[nH]c5cc(OC)ccc5c4CCN3C[C@H]2C[C@@H](OC(=O)c2cc(OC)c(OC)c(OC)c2)[C@@H]1OC [Reserpine]
[1]; HTS of FDA Drug Library
  NPAS2 Z Score: −2.57
[1]; combined Z score (product)
  NPAS Z × ViabilityZ: −10.77
[2]
  Gingival epithelium / gingival defect: normalized gingival epithelium; also recorded: less visible
[2]; palatal side
  Alveolar bone regeneration (microCT bone height): increased bone height; also recorded: Alveolar bone regeneration was demonstrated; also recorded: alveolar bone loss was attenuated; also recorded: significant alveolar bone regeneration
[2]; picrosirius red
  Gingival/periodontal collagen with Sharpey's fibers: gingival/PDL connective tissue reconstruction; also recorded: appeared to be reconstructed; also recorded: normalized Sirius red stained gingival collagen arrangement; also recorded: collagen fibers were reorganized
Npas2-LacZ expression
  Effective concentration (EC): 0.5 to 10 µM
fibroblasts
  Collagen gel contraction: accelerates
  Fibroblast migration in scratch wound healing assay: accelerates
[3]; Dwn1 1 μM vs BMP-2 100 ng/ml
  In vitro mineralization compared with BMP-2 supplementation: equivalent to BMP-2 (100 ng/ml) supplementation
[3]; Npas2+/− BMSC/MSC
  In vitro mineralization / osteogenic differentiation: reproducibly observed
[3]; Npas2+/− BMSC/MSC, listed as Dwn1
  In vitro mineralization / osteogenic differentiation: responded; also recorded: increased
[3]; Npas2−/− BMSC/MSC
  In vitro mineralization / osteogenic differentiation: did not modulate
[3]; wild type BMSC/MSC, osteogenic medium, alizarin red
  In vitro mineralization / osteogenic differentiation: increased alizarin red positive in vitro mineralization; also recorded: dose-dependently accelerated in vitro mineralization; also recorded: reproducibly observed
[3]; wild type BMSC/MSC, osteogenic medium, alizarin red, listed as Dwn1
  In vitro mineralization / osteogenic differentiation: increased dose-dependently; also recorded: dose dependently increased; also recorded: dose-dependently increased
